Results published in patent US20090099158A1, “TETRAHYDROISOQUINOLINE COMPOUNDS AS MODULATORS OF THE HISTAMINE H3 RECEPTOR” (priority 2007, published 2009).

Target: T1, cloned human H3 receptors (Homo sapiens, UniProt Q9Y5N1)
T1 construct: expressed in transfected cells; host or cells: SK-N-MC cells
Test: H3 Receptor Binding (Human)
Details: cloned human H3 receptors stably expressed in SK-N-MC cells; average of the results obtained
Experimental: Binding of compounds to the cloned human H3 receptors, stably expressed in SK-N-MC cells, was performed as described by Barbier, A. J. et al. (Br. J. Pharmacol. 2004, 143(5), 649-661). Data for compounds tested in this assay are presented in Table 1 as an average of the results obtained.

T1 sequence (Q9Y5N1 whole entry): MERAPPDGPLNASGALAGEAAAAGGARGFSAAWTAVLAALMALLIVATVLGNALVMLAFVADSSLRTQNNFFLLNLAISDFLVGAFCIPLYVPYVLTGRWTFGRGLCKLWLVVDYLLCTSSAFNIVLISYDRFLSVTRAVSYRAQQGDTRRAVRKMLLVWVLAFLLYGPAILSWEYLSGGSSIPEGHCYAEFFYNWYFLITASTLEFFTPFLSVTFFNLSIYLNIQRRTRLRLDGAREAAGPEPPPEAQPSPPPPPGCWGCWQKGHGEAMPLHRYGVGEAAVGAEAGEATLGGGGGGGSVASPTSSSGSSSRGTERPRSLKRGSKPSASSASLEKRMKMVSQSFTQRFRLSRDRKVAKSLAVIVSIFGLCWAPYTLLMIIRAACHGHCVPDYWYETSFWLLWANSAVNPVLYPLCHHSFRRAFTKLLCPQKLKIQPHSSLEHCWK

SMILES	Ki [nM]
O=C(C1CCCCC1)N1CCc2cc(CN3CCCN(C4CCC4)CC3)ccc2C1 [Example 171, [6-(4-Cyclobutyl-[1,4]diazepan-1-ylmethyl)-3,4-dihydro-1H-isoquinolin-2-yl]-cyclohexyl-methanone]	23
CC(C)N1CCc2cc(C(=O)N3CCCCC3)ccc2C1 [Example 173, (2-Isopropyl-1,2,3,4-tetrahydro-isoquinolin-6-yl)-piperidin-1-yl-methanone]	1800
CC(C)N1CCc2cc(C(=O)N3CCOCC3)ccc2C1 [Example 174, (2-Isopropyl-1,2,3,4-tetrahydro-isoquinolin-6-yl)-morpholin-4-yl-methanone]	2140
CC(C)N1CCc2cc(C(=O)N3CCN4CCCCC4C3)ccc2C1 (centres unmarked) [Example 175, (2-Isopropyl-1,2,3,4-tetrahydro-isoquinolin-6-yl)-(octahydro-pyrido[1,2-a]pyrazin-2-yl)-methanone]	2
CC(C)N1CCc2cc(C(=O)N3CCC(C(C)(C)O)CC3)ccc2C1 [Example 178, [4-(1-Hydroxy-1-methyl-ethyl)-piperidin-1-yl]-(2-isopropyl-1,2,3,4-tetrahydro-isoquinolin-6-yl)-methanone]	3300
CCCN1CCc2cc(C(=O)N3CCOCC3)ccc2C1 [Example 180, Morpholin-4-yl-(2-propyl-1,2,3,4-tetrahydro-isoquinolin-6-yl)-methanone]	9000
CCCN1CCc2cc(C(=O)N3CCN4CCCCC4C3)ccc2C1 (centres unmarked) [Example 181, (Octahydro-pyrido[1,2-a]pyrazin-2-yl)-(2-propyl-1,2,3,4-tetrahydro-isoquinolin-6-yl)-methanone]	2
O=C(c1ccc2c(c1)CCN(C1CCC1)C2)N1CCCCC1 [Example 185, (2-Cyclobutyl-1,2,3,4-tetrahydro-isoquinolin-6-yl)-piperidin-1-yl-methanone]	2100
O=C(c1ccc2c(c1)CCN(C1CCC1)C2)N1CCOCC1 [Example 186, (2-Cyclobutyl-1,2,3,4-tetrahydro-isoquinolin-6-yl)-morpholin-4-yl-methanone]	1800
CC(C)(C)C1CCN(C(=O)c2ccc3c(c2)CCN(C2CCC2)C3)CC1 [Example 188, (4-tert-Butyl-piperidin-1-yl)-(2-cyclobutyl-1,2,3,4-tetrahydro-isoquinolin-6-yl)-methanone]	340
O=C(c1ccc2c(c1)CCN(C1CCC1)C2)N1CCCN(C2CCC2)CC1 [Example 189, (4-Cyclobutyl-[1,4]diazepan-1-yl)-(2-cyclobutyl-1,2,3,4-tetrahydro-isoquinolin-6-yl)-methanone]	1

More lines, in order of falling Ki, values ahead:

Ki [nM]	SMILES
4200	CCCN1CCc2cc(C(=O)N3CCC(C(C)(C)O)CC3)ccc2C1 [Example 184, [4-(1-Hydroxy-1-methyl-ethyl)-piperidin-1-yl]-(2-Propyl-1,2,3,4-tetrahydro-isoquinolin-6-yl)-methanone]
2800	O=C(c1ccc2c(c1)CCN(C1CCCC1)C2)N1CCOCC1 [Example 172, (2-Cyclopentyl-1,2,3,4-tetrahydro-isoquinolin-6-yl)-morpholin-4-yl-methanone]
2200	O=C(c1ccc2c(c1)CCN(C1CCCC1)C2)N1CCCCC1 [Example 191, (2-Cyclopentyl-1,2,3,4-tetrahydro-isoquinolin-6-yl)-piperidin-1-yl-methanone]
340	CCCN1CCc2cc(C(=O)N3CCC(C(C)(C)C)CC3)ccc2C1 [Example 182, (4-tert-Butyl-piperidin-1-yl)-(2-propyl-1,2,3,4-tetrahydro-isoquinolin-6-yl)-methanone]
250	CC(C)N1CCc2cc(C(=O)N3CCC(C(C)(C)C)CC3)ccc2C1 [Example 176, (4-tert-Butyl-piperidin-1-yl)-(2-isopropyl-1,2,3,4-tetrahydro-isoquinolin-6-yl)-methanone]
1	CCCN1CCc2cc(C(=O)N3CCCN(C4CCC4)CC3)ccc2C1 [Example 183, (4-Cyclobutyl-[1,4]diazepan-1-yl)-(2-propyl-1,2,3,4-tetrahydro-isoquinolin-6-yl)-methanone]
